# Experimental data: US20060100269A1, “Use of 10-aminoaliphatyl-dibenz[b,f]oxepines for the treatment of degenerative ocular disorders” (priority 2003, published 2006)
# Assays:
# [1] = tested on: retinal ganglion cells (RGCs); experiment: crush of the rat optic nerve, RGC loss and apoptotic nuclei; format: in vivo; settings: 0.1 mg/kg subcutaneously, assessed 18 days after optic nerve crush
# [2] = tested on: retinal ganglion cells (RGCs); experiment: transient retinal ischemia by selective ligature of ophthalmic vessels, RGC rescue; format: in vivo; settings: adult Sprague-Dawley rats; 60 minutes ischemia causing 30% RGC death seven days after ischemia; intraperitoneal injection, 0.005 mg/kg
# Experimental: In particular, in adult Sprague-Dawley rats, transient retinal ischemia induced by selective ligature of ophthalmic vessels for 60 minutes, causes a 30% RGC death seven days after ischemia.
structure (smiles),measurement,setting,value
"C#CCN(C)CC1=Cc2ccccc2Oc2ccccc21.O=C(O)/C=C\C(=O)O [N-(dibenz[b,f]oxepin-10-ylmethyl)-N-methyl-N-prop-2-ynylamine hydrogen maleate]",increase in apoptotic nuclei,[1],significantly reduces
same,loss of RGCs,[1],significantly reduces
same,RGC rescue rate,[2],45%
